Among the data in the OligoGym collection are 3 h FOB score values, retold here.

HELM strings list units from the 5' end as sugar, base in round brackets, then linkage (d deoxyribose, r ribose, m 2'-O-methyl, p phosphodiester). Strings are as the collection lists them; they lack the last nucleoside at the 3' end of the tested compound. [moe] = 2'-O-(2-methoxyethyl) (MOE); [sp] = phosphorothioate linkage; [m5C] = 5-methylcytosine

For the data set, the target named is SCN2A. In words: mouse, dose not given. The settings on record: ASO.
In the case of “RNA1{[moe](T)[sp].[moe]([m5C])p.[moe]([m5C])p.[moe](A)p.d([m5C])[sp].d(G)[sp].d(A)[sp].d([m5C])[sp].d(A)[sp].d(T)[sp].d(A)[sp].d(T)[sp].d(T)[sp].d(T)[sp].[moe](T)p.[moe](T)p.[moe]([m5C])p.[moe](T)[sp].[moe](A)}$$$$ (last 3' nucleoside missing)”, the 3 h FOB score was 0 score 0-7.

For “RNA1{[moe](A)[sp].[moe]([m5C])p.[moe](G)p.[moe](A)p.[moe]([m5C])p.d(A)[sp].d(T)[sp].d(A)[sp].d(T)[sp].d(T)[sp].d(T)[sp].d(T)[sp].d(T)[sp].d([m5C])[sp].d(T)[sp].[moe](A)p.[moe]([m5C])p.[moe](A)[sp].[moe]([m5C])}$$$$ (last 3' nucleoside missing)”, the 3 h FOB score worked out at 0 score 0-7. Turning to “RNA1{[moe](A)[sp].[moe](T)p.[moe]([m5C])p.[moe](A)p.[moe]([m5C])p.d(T)[sp].d(T)[sp].d(T)[sp].d([m5C])[sp].d(A)[sp].d(T)[sp].d([m5C])[sp].d([m5C])[sp].d(A)[sp].d([m5C])[sp].[moe](G)p.[moe](A)p.[moe]([m5C])[sp].[moe](A)}$$$$ (last 3' nucleoside missing)”, the 3 h FOB score is 1 score 0-7. The same measure for “RNA1{[moe](T)[sp].[moe](G)p.[moe]([m5C])p.[moe](T)p.[moe]([m5C])p.d(A)[sp].d([m5C])[sp].d(T)[sp].d(G)[sp].d(T)[sp].d([m5C])[sp].d([m5C])[sp].d(T)[sp].d(A)[sp].d(T)[sp].[moe](T)p.[moe](G)p.[moe](A)[sp].[moe](A)}$$$$ (last 3' nucleoside missing)”: 4 score 0-7. As to “RNA1{[moe]([m5C])[sp].[moe]([m5C])p.[moe](G)p.[moe](A)p.d(A)[sp].d(T)[sp].d(T)[sp].d([m5C])[sp].d(T)[sp].d(A)[sp].d(T)[sp].d(T)[sp].d(T)[sp].d(T)[sp].[moe](A)p.[moe](T)p.[moe](A)p.[moe](A)[sp].[moe](A)}$$$$ (last 3' nucleoside missing)”, the 3 h FOB score stood at 0 score 0-7.

For “RNA1{[moe]([m5C])[sp].[moe](A)p.[moe](T)p.[moe](G)p.d([m5C])[sp].d(A)[sp].d(T)[sp].d(A)[sp].d(A)[sp].d(T)[sp].d([m5C])[sp].d([m5C])[sp].d([m5C])[sp].d(A)[sp].[moe](T)p.[moe](T)p.[moe](A)p.[moe](T)[sp].[moe](A)}$$$$ (last 3' nucleoside missing)”, the 3 h FOB score came out at 0 score 0-7. “RNA1{[moe](T)[sp].[moe](G)p.[moe](G)p.[moe](A)p.[moe]([m5C])p.[moe]([m5C])p.d(G)[sp].d(T)[sp].d([m5C])[sp].d(T)[sp].d([m5C])[sp].d(T)[sp].d(T)[sp].d(T)[sp].d([m5C])[sp].d(T)[sp].[moe](T)p.[moe](A)[sp].[moe](T)}$$$$ (last 3' nucleoside missing)” had a 3 h FOB score of 0 score 0-7.

Take “RNA1{[moe]([m5C])[sp].[moe](A)p.[moe](T)p.[moe](G)p.[moe]([m5C])p.[moe](A)p.d(T)[sp].d(A)[sp].d(A)[sp].d(T)[sp].d([m5C])[sp].d([m5C])[sp].d([m5C])[sp].d(A)[sp].d(T)[sp].d(T)[sp].[moe](A)p.[moe](T)[sp].[moe](A)}$$$$ (last 3' nucleoside missing)”: the 3 h FOB score was 0 score 0-7. Substance “RNA1{[moe](T)[sp].[moe](A)p.[moe](T)p.[moe](T)p.d(T)[sp].d(T)[sp].d(A)[sp].d(T)[sp].d(A)[sp].d(A)[sp].d(A)[sp].d(T)[sp].d(G)[sp].d([m5C])[sp].[moe]([m5C])p.[moe](G)p.[moe](A)p.[moe]([m5C])[sp].[moe](T)}$$$$ (last 3' nucleoside missing)” returned a 3 h FOB score of 2.67 score 0-7. With “RNA1{[moe]([m5C])[sp].[moe](A)p.[moe]([m5C])p.[moe](G)p.[moe]([m5C])p.[moe](T)p.d(T)[sp].d(A)[sp].d([m5C])[sp].d(A)[sp].d(T)[sp].d([m5C])[sp].d(A)[sp].d(A)[sp].d(A)[sp].d([m5C])[sp].[moe](A)p.[moe](T)[sp].[moe]([m5C])}$$$$ (last 3' nucleoside missing)” the figure was 0 score 0-7; with “RNA1{[moe](G)[sp].[moe](A)p.[moe](A)p.[moe](A)p.[moe](G)p.d(T)[sp].d(A)[sp].d(G)[sp].d(T)[sp].d(A)[sp].d([m5C])[sp].d([m5C])[sp].d(A)[sp].d(T)[sp].d(T)[sp].[moe]([m5C])p.[moe]([m5C])p.[moe]([m5C])[sp].[moe](A)}$$$$ (last 3' nucleoside missing)”, 1.67 score 0-7; with “RNA1{[moe](G)[sp].[moe]([m5C])p.[moe](A)p.[moe](T)p.[moe](A)p.[moe](A)p.d(T)[sp].d([m5C])[sp].d([m5C])[sp].d([m5C])[sp].d(A)[sp].d(T)[sp].d(T)[sp].d(A)[sp].d(T)[sp].d(A)[sp].[moe]([m5C])p.[moe](A)[sp].[moe](A)}$$$$ (last 3' nucleoside missing)”, 0 score 0-7.

Take “RNA1{[moe](G)[sp].[moe]([m5C])p.[moe](A)p.[moe](T)p.d(A)[sp].d(A)[sp].d(T)[sp].d([m5C])[sp].d([m5C])[sp].d([m5C])[sp].d(A)[sp].d(T)[sp].d(T)[sp].d(A)[sp].[moe](T)p.[moe](A)p.[moe]([m5C])p.[moe](A)[sp].[moe](A)}$$$$ (last 3' nucleoside missing)”: the 3 h FOB score came to 0 score 0-7. The same measure for “RNA1{[moe]([m5C])[sp].[moe](G)p.[moe](T)p.[moe]([m5C])p.[moe](T)p.d([m5C])[sp].d(T)[sp].d(T)[sp].d(T)[sp].d([m5C])[sp].d(T)[sp].d(T)[sp].d(A)[sp].d(T)[sp].d(T)[sp].[moe](T)p.[moe]([m5C])p.[moe](T)[sp].[moe](G)}$$$$ (last 3' nucleoside missing)”: 1 score 0-7. As to “RNA1{[moe]([m5C])[sp].[moe]([m5C])p.[moe](A)p.[moe](T)p.[moe](T)p.[moe](T)p.d([m5C])[sp].d(T)[sp].d(A)[sp].d(T)[sp].d(A)[sp].d(A)[sp].d([m5C])[sp].d(T)[sp].d([m5C])[sp].d(A)[sp].[moe](G)p.[moe]([m5C])[sp].[moe](A)}$$$$ (last 3' nucleoside missing)”, the 3 h FOB score worked out at 0 score 0-7. Take “RNA1{[moe](T)[sp].[moe](G)p.[moe](T)p.[moe](A)p.[moe](A)p.[moe]([m5C])p.d([m5C])[sp].d(T)[sp].d(T)[sp].d(T)[sp].d(A)[sp].d(T)[sp].d(A)[sp].d([m5C])[sp].d(A)[sp].d(T)[sp].[moe](T)p.[moe](T)[sp].[moe](A)}$$$$ (last 3' nucleoside missing)”: the 3 h FOB score was determined as 0 score 0-7.

On to “RNA1{[moe](G)[sp].[moe](A)p.[moe](G)p.[moe](A)p.[moe](G)p.d(A)[sp].d(T)[sp].d(T)[sp].d(G)[sp].d([m5C])[sp].d(T)[sp].d(T)[sp].d(T)[sp].d([m5C])[sp].d([m5C])[sp].[moe]([m5C])p.[moe](T)p.[moe](T)[sp].[moe](T)}$$$$ (last 3' nucleoside missing)”, for which the 3 h FOB score turned out to be 1.33 score 0-7.

The substance “RNA1{[moe](A)[sp].[moe](T)p.[moe](T)p.[moe]([m5C])p.[moe](T)p.[moe](A)p.d(T)[sp].d(T)[sp].d(T)[sp].d(T)[sp].d(A)[sp].d(T)[sp].d(A)[sp].d(A)[sp].d(A)[sp].d(T)[sp].[moe](G)p.[moe]([m5C])[sp].[moe]([m5C])}$$$$ (last 3' nucleoside missing)” showed a 3 h FOB score of 2 score 0-7. The same measure for “RNA1{[moe](T)[sp].[moe](G)p.[moe]([m5C])p.[moe]([m5C])p.[moe](A)p.[moe](T)p.d(T)[sp].d(T)[sp].d([m5C])[sp].d(T)[sp].d(A)[sp].d(T)[sp].d(A)[sp].d(A)[sp].d([m5C])[sp].d(T)[sp].[moe]([m5C])p.[moe](A)[sp].[moe](G)}$$$$ (last 3' nucleoside missing)”: 0 score 0-7; for “RNA1{[moe]([m5C])[sp].[moe]([m5C])p.[moe](A)p.[moe](T)p.[moe](T)p.d(T)[sp].d([m5C])[sp].d(T)[sp].d(A)[sp].d(T)[sp].d(A)[sp].d(A)[sp].d([m5C])[sp].d(T)[sp].d([m5C])[sp].[moe](A)p.[moe](G)p.[moe]([m5C])[sp].[moe](A)}$$$$ (last 3' nucleoside missing)”: 0 score 0-7; for “RNA1{[moe](A)[sp].[moe](T)p.[moe]([m5C])p.[moe](G)p.[moe](A)p.d(T)[sp].d(T)[sp].d([m5C])[sp].d([m5C])[sp].d(T)[sp].d(T)[sp].d(T)[sp].d([m5C])[sp].d(T)[sp].d(G)[sp].[moe]([m5C])p.[moe](A)p.[moe](T)[sp].[moe]([m5C])}$$$$ (last 3' nucleoside missing)”: 1 score 0-7. The substance “RNA1{[moe](G)[sp].[moe](A)p.[moe]([m5C])p.[moe](A)p.d(T)[sp].d(A)[sp].d(T)[sp].d(T)[sp].d(T)[sp].d(T)[sp].d(T)[sp].d([m5C])[sp].d(T)[sp].d(A)[sp].[moe]([m5C])p.[moe](A)p.[moe]([m5C])p.[moe](T)[sp].[moe](G)}$$$$ (last 3' nucleoside missing)” gave a 3 h FOB score of 1 score 0-7. With “RNA1{[moe](A)[sp].[moe]([m5C])p.[moe](G)p.[moe](A)p.d([m5C])[sp].d(A)[sp].d(T)[sp].d(A)[sp].d(T)[sp].d(T)[sp].d(T)[sp].d(T)[sp].d(T)[sp].d([m5C])[sp].[moe](T)p.[moe](A)p.[moe]([m5C])p.[moe](A)[sp].[moe]([m5C])}$$$$ (last 3' nucleoside missing)” the figure was 0 score 0-7; with “RNA1{[moe]([m5C])[sp].[moe](A)p.[moe](T)p.[moe](T)p.[moe](T)p.d([m5C])[sp].d(T)[sp].d(A)[sp].d(T)[sp].d(A)[sp].d(A)[sp].d([m5C])[sp].d(T)[sp].d([m5C])[sp].d(A)[sp].[moe](G)p.[moe]([m5C])p.[moe](A)[sp].[moe](A)}$$$$ (last 3' nucleoside missing)”, 0 score 0-7; with “RNA1{[moe]([m5C])[sp].[moe](A)p.[moe](T)p.[moe](G)p.[moe](T)p.d(A)[sp].d(A)[sp].d(T)[sp].d([m5C])[sp].d(A)[sp].d([m5C])[sp].d(T)[sp].d(T)[sp].d(T)[sp].d([m5C])[sp].[moe](A)p.[moe](T)p.[moe]([m5C])[sp].[moe]([m5C])}$$$$ (last 3' nucleoside missing)”, 0 score 0-7.
